Laboratory results reported in article PMC7366380, “Discovery of a Potent and Selective Covalent Inhibitor and Activity-Based Probe for the Deubiquitylating Enzyme UCHL1, with Antifibrotic Activity” (Journal of the American Chemical Society, 2020).
“And” between values parts separate entries of the source, which are not always exact repeats. Equal values may be shown once.

Experiments:
[1] = target: T1, endogenous UCHL1 (Homo sapiens, UniProt P09936); assay: ABP 2 target engagement in EA.hy926 and A549 cells (in-gel fluorescence, immunoblot); type: cell-based; conditions: 3 h
T1 construct: endogenous in cells; host or cells: EA.hy926 and A549
From the text: Figure S13. ABP 2 target engagement in A549 and EA.hy926 cells. […]
labeled proteins ligated to AzTB capture reagent. (a) Labeled proteins were separated by SDS-PAGE and visualised by in-gel fluorescence. (b) Labeled proteins were enriched by NeutrAvidin magnetic beads. Total lysate (TL), supernatant (SN) an d pulldown (PD) samples […]
Preparation of UCHL1 overexpression cell lysates
After cell lysis and CuAAC […]
relative to the sample volume.
SDS-PAGE and in-gel fluorescence imaging
The protein samples were separated
Biotin affinity enrichment for immunoblot analysis […]
re-suspended as described previously.
Proteins were separated by SDS-
Sample preparation for MS-based proteomic analysis

[2] = target: EIF3H (Homo sapiens, UniProt O15372); assay: Quantitative chemical proteomic profiling of ABP 2 in HEK293 cells: EIF3H; conditions: for Log2 reporter intensity values (Log2FC, DMSO substract): EIF3H, listed as ABP 2

T1 sequence (P09936 whole entry): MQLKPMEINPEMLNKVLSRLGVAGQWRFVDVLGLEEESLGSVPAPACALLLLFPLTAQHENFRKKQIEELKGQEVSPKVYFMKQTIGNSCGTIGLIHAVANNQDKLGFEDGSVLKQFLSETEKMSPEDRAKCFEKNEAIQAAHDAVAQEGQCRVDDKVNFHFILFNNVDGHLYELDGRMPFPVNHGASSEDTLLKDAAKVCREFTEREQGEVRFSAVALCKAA

## C#Cc1cnc2[nH]cc(-c3cccc4c3CCN4C(=O)[C@@H]3CCCN3C#N)c2c1 [Compound 2]
[1]
  profiling of endogenous UCHL1 activity in other cell types: excellent selectivity
[2]; 2 nM, 60 min, replicates A-C
  Log2 reporter intensity values (Log2FC, DMSO substract): 0.03927 and 0.1861 and 0.1127
[2]; 20 nM, 10 min, replicates B,C
  Log2 reporter intensity values (Log2FC, DMSO substract): 0.003189 and 0.05275
[2]; 20 nM, 60 min, replicates A-C
  Log2 reporter intensity values (Log2FC, DMSO substract): 0.08479 and -0.05372 and 0.1466
[2]; 20 nM, 180 min, replicates A-C
  Log2 reporter intensity values (Log2FC, DMSO substract): -0.0501 and -0.006928 and -0.004662
[2]; 200 nM, 10 min, replicates B,C
  Log2 reporter intensity values (Log2FC, DMSO substract): 0.1905 and -0.004432
[2]; 200 nM, 60 min, replicates A-C
  Log2 reporter intensity values (Log2FC, DMSO substract): 0.08499 and -0.02572 and 0.1313
[2]; 200 nM, 180 min, replicates A,C
  Log2 reporter intensity values (Log2FC, DMSO substract): -0.03275 and 0.07608
[2]; HEK293, 2 nM vs DMSO, 1 h, enrichment, TMT, n=3
  Log2 t-test Difference, EIF3H, 2 nM: 0.1127
[2]; HEK293, 20 nM vs DMSO, 1 h, enrichment, TMT, n=3
  Log2 t-test Difference, EIF3H, 20 nM: 0.05921
[2]; HEK293, 200 nM vs DMSO, 1 h, enrichment, TMT, n=3
  Log2 t-test Difference, EIF3H, 200 nM: 0.06352
